Measurements taken from PubChem BioAssay (NCI).
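Assay format: 96-well plates, 48-hour exposure. The concentration for full growth arrest is given as TGI.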

Experiments:
Assay in all cases: NCI-60 cell line screen, 48 h
786-0 renal = system: 786-0 renal
A549 NSCLC = system: A549 NSCLC
ACHN renal = system: ACHN renal
BT-549 breast = system: BT-549 breast
CAKI-1 renal = system: CAKI-1 renal
CCRF-CEM leukemia = system: CCRF-CEM leukemia
COLO 205 colon = system: COLO 205 colon
DU-145 prostate = system: DU-145 prostate
EKVX NSCLC = system: EKVX NSCLC
HCC-2998 colon = system: HCC-2998 colon
HCT-116 colon = system: HCT-116 colon
HCT-15 colon = system: HCT-15 colon
HL-60(TB) leukemia = system: HL-60(TB) leukemia
HOP-62 NSCLC = system: HOP-62 NSCLC
HOP-92 NSCLC = system: HOP-92 NSCLC
HS 578T breast = system: HS 578T breast
HT29 colon = system: HT29 colon
IGROV1 ovarian = system: IGROV1 ovarian
K-562 leukemia = system: K-562 leukemia
KM12 colon = system: KM12 colon
M14 melanoma = system: M14 melanoma
MALME-3M melanoma = system: MALME-3M melanoma
MCF7 breast = system: MCF7 breast
MDA-MB-231 breast = system: MDA-MB-231 breast
MDA-MB-435 = system: MDA-MB-435
MDA-N = system: MDA-N
MOLT-4 leukemia = system: MOLT-4 leukemia
NCI-H23 lung = system: NCI-H23 lung
NCI-H522 lung = system: NCI-H522 lung
NCI/ADR-RES ovarian = system: NCI/ADR-RES ovarian
OVCAR-4 ovarian = system: OVCAR-4 ovarian
OVCAR-8 ovarian = system: OVCAR-8 ovarian
PC-3 prostate = system: PC-3 prostate
RPMI-8226 leukemia = system: RPMI-8226 leukemia
RXF 393 renal = system: RXF 393 renal
SF-268 CNS = system: SF-268 CNS
SF-295 CNS = system: SF-295 CNS
SF-539 CNS = system: SF-539 CNS
SK-MEL-28 melanoma = system: SK-MEL-28 melanoma
SK-MEL-5 melanoma = system: SK-MEL-5 melanoma
SK-OV-3 ovarian = system: SK-OV-3 ovarian
SN12C renal = system: SN12C renal
SNB-19 CNS = system: SNB-19 CNS
SNB-75 CNS = system: SNB-75 CNS
SR leukemia = system: SR leukemia
SW-620 colon = system: SW-620 colon
T-47D breast = system: T-47D breast
TK-10 renal = system: TK-10 renal
U251 CNS = system: U251 CNS
UACC-257 melanoma = system: UACC-257 melanoma
UACC-62 melanoma = system: UACC-62 melanoma
LOX IMVI melanoma = system: LOX IMVI melanoma
NCI-H226 lung = system: NCI-H226 lung
NCI-H460 lung = system: NCI-H460 lung
OVCAR-3 ovarian = system: OVCAR-3 ovarian
OVCAR-5 ovarian = system: OVCAR-5 ovarian
SK-MEL-2 melanoma = system: SK-MEL-2 melanoma
UO-31 renal = system: UO-31 renal

Molecule `COC1(C)C=NCC(C)(C)NC(=O)C(C)(OC)C=NCC(C)(C)NC1=O` (stereo not drawn) has a TGI (786-0 renal) greater than 10 µM, a TGI (A549 NSCLC) greater than 10 µM and a TGI (ACHN renal) greater than 10 µM. It also gave a TGI (BT-549 breast) greater than 10 µM, a TGI (CAKI-1 renal) greater than 10 µM and a TGI (CCRF-CEM leukemia) greater than 10 µM. For the same molecule, the TGI (COLO 205 colon) was greater than 10 µM, the TGI (DU-145 prostate) was greater than 10 µM and the TGI (EKVX NSCLC) was greater than 10 µM. For the same molecule, the TGI (HCC-2998 colon) was greater than 10 µM, the TGI (HCT-116 colon) was greater than 10 µM and the TGI (HCT-15 colon) was greater than 10 µM. The TGI (HL-60(TB) leukemia) was greater than 10 µM, the TGI (HOP-62 NSCLC) was greater than 10 µM and the TGI (HOP-92 NSCLC) was greater than 10 µM. The TGI (HS 578T breast) was greater than 10 µM, the TGI (HT29 colon) was greater than 10 µM and the TGI (IGROV1 ovarian) was greater than 10 µM. For the same molecule, the TGI (K-562 leukemia) was greater than 10 µM, the TGI (KM12 colon) was greater than 10 µM and the TGI (M14 melanoma) was greater than 10 µM. The TGI (MALME-3M melanoma) was greater than 10 µM, the TGI (MCF7 breast) was greater than 10 µM and the TGI (MDA-MB-231 breast) was greater than 10 µM. The TGI (MDA-MB-435) was greater than 10 µM, the TGI (MDA-N) was greater than 10 µM and the TGI (MOLT-4 leukemia) was greater than 10 µM. The TGI (NCI-H23 lung) was greater than 10 µM, the TGI (NCI-H522 lung) was greater than 10 µM and the TGI (NCI/ADR-RES ovarian) was greater than 10 µM. For the same molecule, the TGI (OVCAR-4 ovarian) was greater than 10 µM, the TGI (OVCAR-8 ovarian) was greater than 10 µM and the TGI (PC-3 prostate) was greater than 10 µM. It also gave a TGI (RPMI-8226 leukemia) greater than 10 µM, a TGI (RXF 393 renal) greater than 10 µM and a TGI (SF-268 CNS) greater than 10 µM. It also gave a TGI (SF-295 CNS) greater than 10 µM, a TGI (SF-539 CNS) greater than 10 µM and a TGI (SK-MEL-28 melanoma) greater than 10 µM. It also gave a TGI (SK-MEL-5 melanoma) greater than 10 µM, a TGI (SK-OV-3 ovarian) greater than 10 µM and a TGI (SN12C renal) greater than 10 µM. For the same molecule, the TGI (SNB-19 CNS) was greater than 10 µM, the TGI (SNB-75 CNS) was greater than 10 µM and the TGI (SR leukemia) was greater than 10 µM. For the same molecule, the TGI (SW-620 colon) was greater than 10 µM, the TGI (T-47D breast) was greater than 10 µM and the TGI (TK-10 renal) was greater than 10 µM. The TGI (U251 CNS) was greater than 10 µM, the TGI (UACC-257 melanoma) was greater than 10 µM and the TGI (UACC-62 melanoma) was greater than 10 µM.
For `O=C1OC(c2ccccc2)N/C1=C\c1ccc2c(c1)OCO2` (stereo not drawn), the TGI (786-0 renal) was greater than 100 µM, the TGI (A549 NSCLC) was greater than 100 µM and the TGI (ACHN renal) was greater than 100 µM. It also gave a TGI (BT-549 breast) greater than 100 µM, a TGI (CAKI-1 renal) greater than 100 µM and a TGI (CCRF-CEM leukemia) of 99.6 µM. The TGI (COLO 205 colon) was greater than 100 µM, the TGI (DU-145 prostate) was greater than 100 µM and the TGI (EKVX NSCLC) was greater than 100 µM. It also gave a TGI (HCC-2998 colon) greater than 100 µM, a TGI (HCT-116 colon) greater than 100 µM and a TGI (HCT-15 colon) greater than 100 µM. It also gave a TGI (HL-60(TB) leukemia) of 0.684 µM, a TGI (HOP-62 NSCLC) greater than 100 µM and a TGI (HOP-92 NSCLC) greater than 100 µM. It also gave a TGI (HS 578T breast) greater than 100 µM, a TGI (HT29 colon) greater than 100 µM and a TGI (IGROV1 ovarian) greater than 100 µM. The TGI (K-562 leukemia) was greater than 100 µM, the TGI (KM12 colon) was greater than 95.5 µM and the TGI (LOX IMVI melanoma) was greater than 100 µM. The TGI (M14 melanoma) was greater than 100 µM, the TGI (MCF7 breast) was greater than 100 µM and the TGI (MDA-MB-231 breast) was greater than 100 µM. For the same molecule, the TGI (MDA-MB-435) was greater than 100 µM, the TGI (MDA-N) was greater than 100 µM and the TGI (MOLT-4 leukemia) was greater than 100 µM. The TGI (NCI-H226 lung) was greater than 100 µM, the TGI (NCI-H23 lung) was greater than 100 µM and the TGI (NCI-H460 lung) was greater than 100 µM. The TGI (NCI-H522 lung) was greater than 100 µM, the TGI (NCI/ADR-RES ovarian) was greater than 100 µM and the TGI (OVCAR-3 ovarian) was greater than 100 µM. For the same molecule, the TGI (OVCAR-4 ovarian) was greater than 88 µM, the TGI (OVCAR-5 ovarian) was greater than 100 µM and the TGI (OVCAR-8 ovarian) was greater than 100 µM. It also gave a TGI (PC-3 prostate) greater than 100 µM, a TGI (RPMI-8226 leukemia) of 59.9 µM and a TGI (RXF 393 renal) greater than 100 µM. It also gave a TGI (SF-268 CNS) greater than 100 µM, a TGI (SF-295 CNS) greater than 100 µM and a TGI (SF-539 CNS) greater than 31.6 µM. The TGI (SK-MEL-2 melanoma) was greater than 100 µM, the TGI (SK-MEL-28 melanoma) was greater than 100 µM and the TGI (SK-MEL-5 melanoma) was greater than 100 µM. For the same molecule, the TGI (SK-OV-3 ovarian) was greater than 100 µM, the TGI (SN12C renal) was greater than 100 µM and the TGI (SNB-19 CNS) was greater than 100 µM. For the same molecule, the TGI (SNB-75 CNS) was greater than 100 µM, the TGI (SR leukemia) was 63.9 µM and the TGI (SW-620 colon) was greater than 100 µM. The TGI (T-47D breast) was greater than 100 µM, the TGI (TK-10 renal) was greater than 100 µM and the TGI (U251 CNS) was greater than 100 µM. The TGI (UACC-257 melanoma) was greater than 100 µM, the TGI (UACC-62 melanoma) was greater than 100 µM and the TGI (UO-31 renal) was greater than 100 µM.
